Article PMC7576608, “Mechanisms of telomerase inhibition by oxidized and therapeutic dNTPs” (Nature Communications, 2020)
Where “and” joins values, the source holds several entries; their conditions need not be identical. Equal entries are not always repeated. Where two headings read alike, the source gives them in different places.

Key:
telomerase [1] = target: T1, telomerase (Homo sapiens, UniProt O14746); assay: Telomerase extension after insertion of modified dNTP (percent of product terminated at each template position); type: biochemical; design: made in house; anti-FLAG immunopurification, eluted with 3xFLAG peptide; settings: Mean
Description: Direct telomerase assays were conducted with 5 nM ^32P-end labeled primer a and d Primer 3 (AGGGTT)3, b Primer 1 (TTAGGG)3, or c Primer 2 […]. […] Products were separated on denaturing gels. Letters on the y-axis of the graph indicate the template base; P indicates unextended 18-mer primer. Graphs represent percent of product terminated at each template position as a function of total products. Images are representative of, and data are the mean ± s.d. from, three independent experiments. Source data are provided as a Source Date file.
The reactions were started by the addition of 3 μl of immunopurified telomerase eluent, incubated at 37 °C for 1 h, then terminated with 2 μl of […] and heat inactivated at 65 °C for 20 min. An equal volume of loading buffer (94% formamide, 0.1× TBE, 0.1% bromophenol blue, 0.1% xylene cyanol) was added to the reaction eluent. The samples were heat denatured for 10 min at 100 °C and loaded onto a 14% denaturing acrylamide gel (7 M urea, 1× TBE) and electrophoresed for 90 min at constant 38 W. Samples were imaged using a Typhoon phosphorimager (GE Healthcare). Percent primer extension was calculated with ImageQuant TL 8.2 by measuring the intensity of each product band and dividing by the total radioactivity in the lane or total products, as indicated in the figure legends.

telomerase [2] = target: T1, telomerase; assay: Telomerase repeat processivity IC50: modified dNTP titrated into reactions with all four natural dNTPs; type: biochemical; design: made in house; anti-FLAG immunopurification, eluted with 3xFLAG peptide
Summary of the method: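 Immunopurified telomerase was run with cellular-relevant levels of all four natural dNTPs plus modified dNTP at 0 to 10,000 μM, for 1 h at 37 °C, and products were resolved on a denaturing gel by phosphorimaging. Repeat processivity R1/2 = −ln(2)/slope of ln(100−%LB) vs repeat number. IC50 is the concentration halving repeat processivity.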

[3] = dose-response fit of processivity R 1/2, individual replicates
[4] = dose-response fit of processivity R 1/2 vs log(concentration), individual replicates

T1 sequence (O14746 whole entry): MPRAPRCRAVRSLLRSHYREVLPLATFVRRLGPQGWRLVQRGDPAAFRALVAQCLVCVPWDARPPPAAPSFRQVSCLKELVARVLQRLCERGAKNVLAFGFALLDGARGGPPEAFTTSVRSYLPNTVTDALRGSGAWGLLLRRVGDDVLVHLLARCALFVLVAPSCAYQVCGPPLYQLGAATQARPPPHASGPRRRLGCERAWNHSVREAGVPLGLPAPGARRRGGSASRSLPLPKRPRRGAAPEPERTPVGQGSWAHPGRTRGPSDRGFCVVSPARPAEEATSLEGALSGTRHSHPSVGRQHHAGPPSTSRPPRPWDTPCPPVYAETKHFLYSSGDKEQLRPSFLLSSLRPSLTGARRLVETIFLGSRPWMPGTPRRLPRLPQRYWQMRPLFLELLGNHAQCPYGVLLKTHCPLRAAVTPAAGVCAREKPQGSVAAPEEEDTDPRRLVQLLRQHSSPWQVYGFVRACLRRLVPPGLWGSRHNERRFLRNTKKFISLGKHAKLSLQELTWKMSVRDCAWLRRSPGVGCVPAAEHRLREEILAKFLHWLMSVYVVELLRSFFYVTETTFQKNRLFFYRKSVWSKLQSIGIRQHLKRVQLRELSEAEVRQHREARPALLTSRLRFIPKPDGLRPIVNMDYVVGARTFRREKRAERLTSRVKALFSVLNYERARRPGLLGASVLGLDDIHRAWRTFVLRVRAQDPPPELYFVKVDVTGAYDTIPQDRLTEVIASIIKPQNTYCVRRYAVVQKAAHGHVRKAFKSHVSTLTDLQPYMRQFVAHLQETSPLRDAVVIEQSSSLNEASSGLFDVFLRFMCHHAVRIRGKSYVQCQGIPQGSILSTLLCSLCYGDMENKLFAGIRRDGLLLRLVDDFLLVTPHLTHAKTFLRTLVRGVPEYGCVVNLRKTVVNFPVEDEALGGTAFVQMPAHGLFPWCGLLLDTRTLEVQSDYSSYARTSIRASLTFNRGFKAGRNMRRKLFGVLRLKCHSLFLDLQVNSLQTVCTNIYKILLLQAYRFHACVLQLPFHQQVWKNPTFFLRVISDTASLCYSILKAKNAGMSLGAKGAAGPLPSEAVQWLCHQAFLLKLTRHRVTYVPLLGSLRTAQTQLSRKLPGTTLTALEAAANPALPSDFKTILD

## Nc1ncnc2c1ncn2C1CC(O)C(COP(=O)(O)OP(=O)(O)OP(=O)(O)O)O1 (stereo not drawn) [dATP]
Telomerase [1]; Fig 4a, Primer 3, 50 μM each dTTP, dGTP and dATP or 2-OH-dATP, terminated at rA3
  Percent of Total Product: 2.35%
Telomerase [1]; Fig 4a, Primer 3, 50 μM each dTTP, dGTP and dATP or 2-OH-dATP, terminated at rA4
  Percent of Total Product: 1.56%
Telomerase [1]; Fig 4a, Primer 3, 50 μM each dTTP, dGTP and dATP or 2-OH-dATP, terminated at rC1
  Percent of Total Product: 1.47%
Telomerase [1]; Fig 4a, Primer 3, 50 μM each dTTP, dGTP and dATP or 2-OH-dATP, terminated at rC2
  Percent of Total Product: 0.77%
Telomerase [1]; Fig 4a, Primer 3, 50 μM each dTTP, dGTP and dATP or 2-OH-dATP, terminated at rC6
  Percent of Total Product: 8.96%
Telomerase [1]; Fig 4a, Primer 3, 50 μM each dTTP, dGTP and dATP or 2-OH-dATP, terminated at rU5 (first)
  Percent of Total Product: 4.92%
Telomerase [1]; Fig 4a, Primer 3, 50 μM each dTTP, dGTP and dATP or 2-OH-dATP, terminated at rU5 (second, after translocation)
  Percent of Total Product: 0.73%

## Nc1nc2c(ncn2C2CC(O)C(COP(=O)(O)OP(=O)(O)OP(=O)(O)O)O2)c(=O)[nH]1 (stereo not drawn) [dGTP]
Telomerase [1]; Fig 4b, Primer 1 (TTAGGG)3, 50 μM each dATP, dTTP and dGTP or 6-thio-dGTP, terminated at rA3
  Percent of Total Product: 7.65%
Telomerase [1]; Fig 4b, Primer 1, 50 μM each dATP, dTTP and dGTP or 6-thio-dGTP, terminated at rA4
  Percent of Total Product: 5.26%
Telomerase [1]; Fig 4b, Primer 1, 50 μM each dATP, dTTP and dGTP or 6-thio-dGTP, terminated at rC1
  Percent of Total Product: 0.66%
Telomerase [1]; Fig 4b, Primer 1, 50 μM each dATP, dTTP and dGTP or 6-thio-dGTP, terminated at rC2
  Percent of Total Product: 0.40%
Telomerase [1]; Fig 4b, Primer 1, 50 μM each dATP, dTTP and dGTP or 6-thio-dGTP, terminated at rC6
  Percent of Total Product: 4.56%
Telomerase [1]; Fig 4b, Primer 1, 50 μM each dATP, dTTP and dGTP or 6-thio-dGTP, terminated at rU5
  Percent of Total Product: 0.95%
Telomerase [1]; Fig 4c, Primer 2, 50 μM each dATP, dTTP and dGTP or 6-thio-dGTP, terminated at rA3
  Percent of Total Product: 5.15%
Telomerase [1]; Fig 4c, Primer 2, 50 μM each dATP, dTTP and dGTP or 6-thio-dGTP, terminated at rA4
  Percent of Total Product: 4.76%
Telomerase [1]; Fig 4c, Primer 2, 50 μM each dATP, dTTP and dGTP or 6-thio-dGTP, terminated at rC1
  Percent of Total Product: 7.39%
Telomerase [1]; Fig 4c, Primer 2, 50 μM each dATP, dTTP and dGTP or 6-thio-dGTP, terminated at rC2
  Percent of Total Product: 1.97%
Telomerase [1]; Fig 4c, Primer 2, 50 μM each dATP, dTTP and dGTP or 6-thio-dGTP, terminated at rC6
  Percent of Total Product: 6.22%
Telomerase [1]; Fig 4c, Primer 2, 50 μM each dATP, dTTP and dGTP or 6-thio-dGTP, terminated at rU5
  Percent of Total Product: 1.19%
Telomerase [1]; Fig 4d, Primer 3 (AGGGTT)3, 50 μM each dATP, dTTP and dGTP or 6-thio-dGTP, terminated at rU5
  Percent of Total Product: 4.50%
Telomerase [1]; Fig 4d, Primer 3, 50 μM each dATP, dTTP and dGTP or 6-thio-dGTP, terminated at rA3
  Percent of Total Product: 2.21%
Telomerase [1]; Fig 4d, Primer 3, 50 μM each dATP, dTTP and dGTP or 6-thio-dGTP, terminated at rC1
  Percent of Total Product: 1.49%
Telomerase [1]; Fig 4d, Primer 3, 50 μM each dATP, dTTP and dGTP or 6-thio-dGTP, terminated at rC2
  Percent of Total Product: 0.72%
Telomerase [1]; Fig 4d, Primer 3, 50 μM each dATP, dTTP and dGTP or 6-thio-dGTP, terminated at rC6
  Percent of Total Product: 8.67%

## O=c1[nH]cnc2c1ncn2C1CCC(COP(=O)(O)OP(=O)(O)OP(=O)(O)O)O1 (stereo not drawn) [ddITP]
Telomerase [2]; cellular relevant natural dNTPs, modified dNTP titrated 0 to 10,000 μM, based on repeat processivity, mean ± SD, read-out: Telomerase processivity IC50
  IC50: 61 ± 23 µM
Telomerase [2]; ddITP 31μM
  YIntercept (line fit of ln(100-%LB) vs # telomere repeats): 3.68 and 3.90 and 3.32
Telomerase [2]; ddITP 31μM, telomere repeat 1
  ln(100-%LB): 3.63 and 3.77 and 3.47
Telomerase [2]; ddITP 31μM, telomere repeat 2
  ln(100-%LB): 2.96 and 3.17 and 2.59
Telomerase [2]; ddITP 31μM, telomere repeat 3
  ln(100-%LB): 2.31 and 2.52 and 1.69
Telomerase [2]; ddITP 31μM, telomere repeat 4
  ln(100-%LB): 1.98 and 2.18 and 1.18
Telomerase [2]; ddITP 62μM
  YIntercept (line fit of ln(100-%LB) vs # telomere repeats): 4.03 and 4.15
Telomerase [2]; ddITP 62μM, telomere repeat 1
  ln(100-%LB): 3.64 and 3.75
Telomerase [2]; ddITP 62μM, telomere repeat 2
  ln(100-%LB): 2.81 and 2.79
Telomerase [2]; ddITP 62μM, telomere repeat 3
  ln(100-%LB): 1.96 and 1.84
Telomerase [2]; ddITP 62μM, telomere repeat 4
  ln(100-%LB): 1.44 and 1.17
Telomerase [2]; ddITP 62μM, telomere repeat 5
  ln(100-%LB): 0.94 and 0.56
Telomerase [2]; ddITP 250μM
  YIntercept (line fit of ln(100-%LB) vs # telomere repeats): 4.62 and 3.98
Telomerase [2]; ddITP 250μM, telomere repeat 1
  ln(100-%LB): 3.84 and 3.61
Telomerase [2]; ddITP 250μM, telomere repeat 2
  ln(100-%LB): 2.72 and 2.32
Telomerase [2]; ddITP 250μM, telomere repeat 3
  ln(100-%LB): 1.42 and 1.15
Telomerase [2]; ddITP 250μM, telomere repeat 4
  ln(100-%LB): 0.59 and 0.39
Telomerase [2]; ddITP 500μM
  Slope (line fit of ln(100-%LB) vs # telomere repeats): -0.95
  YIntercept (line fit of ln(100-%LB) vs # telomere repeats): 4.49
Telomerase [2]; ddITP 500μM, telomere repeat 1
  ln(100-%LB): 3.63 and 3.72
Telomerase [2]; ddITP 500μM, telomere repeat 2
  ln(100-%LB): 2.49 and 2.52
Telomerase [2]; ddITP 500μM, telomere repeat 3
  ln(100-%LB): 1.54 and 1.27
Telomerase [2]; ddITP 500μM, telomere repeat 4
  ln(100-%LB): 0.70 and 0.51
Telomerase [2]; ddITP 750μM
  YIntercept (line fit of ln(100-%LB) vs # telomere repeats): 4.67 and 4.49
Telomerase [2]; ddITP 750μM, telomere repeat 1
  ln(100-%LB): 3.72 and 3.79
Telomerase [2]; ddITP 750μM, telomere repeat 2
  ln(100-%LB): 2.57 and 2.74
Telomerase [2]; ddITP 750μM, telomere repeat 3
  ln(100-%LB): 1.55 and 1.58
Telomerase [2]; ddITP 750μM, telomere repeat 4
  ln(100-%LB): 0.67 and 0.79
Telomerase [2]; ddITP 1000μM
  YIntercept (line fit of ln(100-%LB) vs # telomere repeats): 4.63 and 4.20
Telomerase [2]; ddITP 1000μM, telomere repeat 1
  ln(100-%LB): 3.82 and 3.80
Telomerase [2]; ddITP 1000μM, telomere repeat 2
  ln(100-%LB): 3.01 and 3.04
Telomerase [2]; ddITP 1000μM, telomere repeat 3
  ln(100-%LB): 2.22 and 2.25
Telomerase [2]; ddITP 1000μM, telomere repeat 4
  ln(100-%LB): 1.56 and 1.76
Telomerase [2]; ddITP 1000μM, telomere repeat 5
  ln(100-%LB): 0.86 and 1.29
Telomerase [2]; ddITP 1500
  Slope (line fit of ln(100-%LB) vs # telomere repeats): -0.86
  YIntercept (line fit of ln(100-%LB) vs # telomere repeats): 4.62 and 4.48
Telomerase [2]; ddITP 1500, telomere repeat 1
  ln(100-%LB): 3.74 and 3.65
Telomerase [2]; ddITP 1500, telomere repeat 2
  ln(100-%LB): 2.90 and 2.79
Telomerase [2]; ddITP 1500, telomere repeat 3
  ln(100-%LB): 2.03 and 1.76
Telomerase [2]; ddITP 1500, telomere repeat 4
  ln(100-%LB): 1.25 and 1.21
Telomerase [2]; ddITP 1500, telomere repeat 5
  ln(100-%LB): 0.25 and 0.17
Telomerase [2]; [3]
  Best-fit values HillSlope: -1.214 and -1.087 and -1.6
  Best-fit values Span: 1.373 and 2.642 and 1.489
Telomerase [2]; dose-response fit of processivity R 1/2, log of concentration in μM, individual replicates
  Best-fit values LogIC50: 1.601 and 1.931 and 1.751
Telomerase [2]; [4]
  Best-fit values Bottom: 0.6806 and 0.1353 and 0.7679
  Best-fit values Top: 2.054 and 2.778 and 2.257
Telomerase [2]; log of processivity IC50 (concentration in μM), Supplementary Fig 8b, read-out: Log IC50 (converted)
  IC50: 63.1 µM
Telomerase [2]; modified dNTP concentration 31.25 μM, individual replicates n1-n3
  Processivity R 1/2: 1.52 and 2.08 and 1.82
Telomerase [2]; modified dNTP concentration 62.5 μM, individual replicates
  Processivity R 1/2: 1.13 and 1.82
Telomerase [2]; modified dNTP concentration 250 μM, individual replicates
  Processivity R 1/2: 0.87 and 0.71
Telomerase [2]; modified dNTP concentration 500 μM, individual replicates
  Processivity R 1/2: 0.8 and 0.73 (2×)
Telomerase [2]; modified dNTP concentration 750 μM, individual replicates
  Processivity R 1/2: 0.8 and 0.49
Telomerase [2]; modified dNTP concentration 1000 μM, individual replicates
  Processivity R 1/2: 0.69 (2×) and 0.47
Telomerase [2]; modified dNTP concentration 1500 μM, individual replicates
  Processivity R 1/2: 0.81 and 0.26 and 0.88
Telomerase [2]; modified dNTP concentration 2000 μM, individual replicates
  Processivity R 1/2: 0.45 and 0 and 0.81
Telomerase [2]; repeat processivity R 1/2, individual replicates N1-N3, read-out: Best-fit values IC50
  IC50: 39.9 µM and 85.3 µM and 56.4 µM
Telomerase [2]; repeat processivity R 1/2, mean of replicates, read-out: Mean IC50
  IC50: 60.5 µM
